Patent publication EP4792811A1, “S1PR4 REGULATOR COMPOUND FOR MUSCLE DISEASE TREATMENT AND APPLICATION THEREOF” (Shengyuan Zetong (Shanghai) Pharmaceutical Co., Ltd, priority 2023, dated 2025)
Entries after “also recorded” stand apart in the source; their conditions may differ.

Key:
[1] = molecular target: T1, hS1P4 (Homo sapiens, UniProt O95977); assay: Tango β-arrestin recruitment assay, Tango-hS1P4-CHO; assay type: cell-based; conditions: final concentration 45 µM, 9 serial dilutions at 5-fold intervals; 20 h drug treatment; luciferase readout
T1 construct: expressed in transfected cells; host or cells: CHO-K1
T1 sequence (O95977 1-384): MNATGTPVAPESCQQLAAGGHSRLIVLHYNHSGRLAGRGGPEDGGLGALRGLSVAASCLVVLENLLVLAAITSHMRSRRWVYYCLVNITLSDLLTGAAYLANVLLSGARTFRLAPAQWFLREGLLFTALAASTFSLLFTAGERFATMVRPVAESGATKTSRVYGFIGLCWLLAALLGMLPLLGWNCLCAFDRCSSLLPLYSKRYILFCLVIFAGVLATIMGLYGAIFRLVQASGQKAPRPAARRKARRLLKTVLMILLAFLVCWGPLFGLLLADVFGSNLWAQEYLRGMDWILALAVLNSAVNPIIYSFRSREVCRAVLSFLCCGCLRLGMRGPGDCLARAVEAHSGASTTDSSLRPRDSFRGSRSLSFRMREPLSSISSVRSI
From the text: (§1) The Tango assay detects ligand-dependent GPCR activity through the interaction between β-arrestin and GPCRs. […] The NTEV fragment and the tetracycline transactivator (tTA), an artificial transcription factor, are fused at the C-terminus of the GPCR, while the CTEV fragment is fused to human β-arrestin 2. To enhance the stability of the interaction between GPCR and β-arrestin, a short sequence from the C-terminus of the human arginine vasopressin receptor 2 (V2 tail) is inserted between the GPCR and NTEV. The V2 tail contains multiple GRK phosphorylation sites, which strengthen β-arrestin binding upon phosphorylation. The CTEV fragment carries the stabile point mutation S219P and is truncated at residue 221 to remove the autoinhibitory C-terminal tail. Meanwhile, β-arrestin 2 is truncated to lack the entire C-terminal tail (residues 383-410 deleted). This truncation confers robust stimulus-dependent receptor desensitization, thereby improving detection sensitivity compared with wild-type β-arrestin 2. The UAS reporter construct consists of upstream activating sequence (UAS) elements, a minimal CMV promoter, and a tTA-dependent luciferase reporter gene. Therefore, constructing Tango cells requires the co-transfection of the above three plasmids into host cells. Upon GPCR activation and β-arrestin recruitment, the TEV enzyme at the β-arrestin terminus cleaves tTA from the GPCR C-terminus. The released tTA initiates tTA-dependent luciferase transcription, and compound activity is ultimately determined by measuring luminescence intensity.
(§2) • 1) Tango cell line from was digested from the culture dish respectively. After cell counting, the cells were plated at a density of 10,000 cells per well with […] into a white opaque 96-well plate (add 60 µL D'Hanks to the surrounding wells), and incubated overnight (20 h) in a 5% CO2 incubator at 37°C. The cell density will reach approximately 90% the next day. • 2) After 20 h, 30 µL of serially diluted compound solution was added to each well. The control group was supplemented with 30 µL F12K complete medium. Each group had three replicate wells. • 3) Samples were collected after 20 h of drug treatment.
(§3) (All compounds were tested at a final concentration of 45 µM, with 9 serial dilutions at 5-fold intervals. 1 µM BAF-312 was used as the positive control for S1PR1, and 25 µM BAF-312 was used as the positive control for S1PR4.)
(§4) ^a β-arrestin recruitment activity based on Tango-S1PR1-CHO-K1 and Tango-S1PR4-CHO-K1 cells, expressed as mean EC50 values ± SD. ^b FLIPR assays were performed using S1PR2-CHO and S1PR5-CHO cell lines, expressed as mean EC50 values ± SD. ^c β-arrestin recruitment activity based on PathHunter CHO-K1-S1PR3 cells, expressed as mean EC50 values ± SD. Data are the mean of at least two independent determinations, reported as mean ± SD (standard deviation).

[2] = molecular target: T2, hS1P1 (Homo sapiens, UniProt P21453); assay: Tango β-arrestin recruitment assay, Tango-hS1P1-CHO; assay type: cell-based; conditions: final concentration 45 µM, 9 serial dilutions at 5-fold intervals; 20 h drug treatment; luciferase readout
T2 construct: expressed in transfected cells; host or cells: CHO-K1
T2 sequence (P21453 whole entry): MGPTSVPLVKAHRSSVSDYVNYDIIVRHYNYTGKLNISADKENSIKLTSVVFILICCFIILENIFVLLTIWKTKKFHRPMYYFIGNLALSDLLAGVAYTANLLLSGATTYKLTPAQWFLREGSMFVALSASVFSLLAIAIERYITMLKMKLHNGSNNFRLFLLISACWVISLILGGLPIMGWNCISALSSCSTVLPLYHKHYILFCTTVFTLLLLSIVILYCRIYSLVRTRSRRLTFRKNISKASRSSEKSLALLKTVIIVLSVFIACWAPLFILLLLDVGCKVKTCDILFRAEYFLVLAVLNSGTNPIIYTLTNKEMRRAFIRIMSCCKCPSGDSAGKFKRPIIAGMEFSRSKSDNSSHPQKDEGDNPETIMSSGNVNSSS
From the text: as §1, §2, §3, §4

[3] = tested on: S1PR4-R82C/NDUFA10-R217W double-mutant mice; assay: In vivo efficacy in S1PR4-R82C/NDUFA10-R217W double-mutant muscular dystrophy mice; conditions: 1 mg/kg intragastric once daily
Experimental: Experimental Animals: A total of 34 S1PR4-R82C/NDUFA10-R217W mice were divided into 6 groups as shown below.
Intragastric administration was initiated on Day 0, and body weight was measured daily during the experiment to adjust the drug dosage. Grip strength was measured at the beginning and end of the experiment to observe motor changes in mice. Changes in the limb grip strength, serum creatine kinase content, and muscle fibrosis/inflammation in mice were detected as indicators for evaluating drug efficacy.
(§5) The mouse was placed horizontally on the grip test board. The mouse's tail was held and pulled gently in the opposite direction without using excessive force. The tail was gradually pulled until the mouse released the grip force sensor. The maximum value recorded by the grip force sensor is the grip strength. The test was repeated for 3 times and the average value was taken.
(§6) After the completion of administration, blood was collected via the orbital sinus, allowed to stand for 30 minutes, centrifuged at 3000 rpm at 4°C for 15 minutes, and serum was extracted, stored frozen at -20°C, and detected in accordance with the kit instructions.
(§7) After the experiment, the tibialis anterior, extensor digitorum longus, and diaphragm of the mice were harvested, fixed, sectioned, and subjected to HE staining and Sirius Red staining to observe the degree of muscle fibrosis. The slice was subjected to immunofluorescence staining with F4/80 to observe the level of muscle inflammation.

[4] = tested on: Duchenne muscular dystrophy model mice; assay: In vivo pharmacodynamic test in Duchenne muscular dystrophy model mice (Compound 30)
Experimental: Experimental Animals: A total of 35 Duchenne muscular dystrophy model mice were divided into 6 groups as shown below.
Intragastric administration was initiated from Day 0. Body weight was measured daily during the experiment to adjust the drug dosage. Grip strength tests were performed every 2 days to observe changes in the mice's grip strength until the experiment concluded on Day 21. Changes in the limb grip strength, serum creatine kinase content, and muscle fibrosis/inflammation in the mice were detected as indicators for evaluating drug efficacy.
as §5, §6, §7

[5] = 1 mg/kg intragastric once daily

EC50 [1] [nM]	EC50 [2] [nM]	SMILES	also measured
10.6 ± 1.19	–	CCc1cc(/C(C)=N/OCc2ccc(-c3cnc(F)cn3)c(C)c2)ccc1CN1CCC(C(=O)O)C1 (centres unmarked) [Compound 4, (E)-1-(2-ethyl-4-(1-(((4-(5-fluoropyrazin-2-yl)-3-methylbenzyl)oxy)imino)ethyl)benzyl)pyrrolidine-3-carboxylic acid]	–
27.4 ± 1.12	3210 ± 112	CCc1cc(/C(C)=N/OCc2ccc(-c3cnc(F)cn3)c(F)c2)ccc1CN1CC[C@H](C(=O)O)C1 [Compound 88, (S, E)-1-(2-ethyl-4-(1-(((3-fluoro-4-(5-fluoropyrazin-2-yl)benzyl)oxy)imino)ethyl)benzyl)pyrrolidine-3-carboxylic acid]	–
18 ± 0.525	–	CCc1cc(/C(C)=N/OCc2ccc(-c3cnc(F)nc3)c(C)c2)ccc1CN1CC[C@H](C(=O)O)C1 [Compound 80, (S, E)-1-(2-ethyl-4-(1-(((4-(2-fluoropyrimidin-5-yl)-3-methylbenzyl)oxy)imino)ethyl)benzyl)pyrrolidine-3-carboxylic acid]	–
40.95 ± 0.22	–	CCc1cc(/C(C)=N/OCc2ccc(-c3cncnc3C)c(C)c2)ccc1CN1CC[C@H](C(=O)O)C1 [Compound 83, (S, E)-1-(2-ethyl-4-(1-(((3-methyl-4-(4-methylpyrimidin-5-yl)benzyl)oxy)imino)ethyl)benzyl)pyrrolidine-3-carboxylic acid]	–
–	54.45 ± 0.2	CCc1cc(/C(C)=N/OCc2ccc(-c3cnc(F)cn3)c(C)c2)ccc1CN1CC(C(=O)O)C1 [Compound 91, (E)-1-(2-ethyl-4-(1-(((3-methyl-4-(5-fluoropyrazin-2-yl)-benzyl)oxy)imino)ethyl)benzyl)azetidine-3-carboxylic acid]	–
560 ± 185	–	CCc1cc(/C(C)=N/OCc2ccc3ccccc3c2)ccc1CN1CC(C(=O)O)C1 [Compound 15]	–
–	23.2 ± 10.9	CCc1cc(/C(C)=N/OCc2ccc(OC(C)C)c(C#N)c2)ccc1CN1CC(C(=O)O)C1 [Compound 16, (E)-1-(4-(1-(((3-cyano-4-isopropoxybenzyl)oxy)imino)ethyl)-2-ethylbenzyl)azetidine-3-carboxylic acid]	–
–	5100 ± 1510	CCc1cc(/C(C)=N/OCc2cccc(C(F)(F)F)c2)ccc1CN1CC(C(=O)O)C1 [Compound 13]	–

Second part, the molecule before the results:

SMILES	EC50 [1] [nM]	EC50 [2] [nM]	also measured
CCc1cc(/C(C)=N/OCc2ccc(-c3cccs3)cc2)ccc1CN1CC[C@H](C(=O)O)C1 [Compound 73]	10.7 ± 0.11	–	–
CCc1cc(/C(C)=N/OCc2ccc(-c3cncnc3)cc2)ccc1CN1CC[C@H](C(=O)O)C1 [Compound 70, (S, E)-1-(2-ethyl-4-(1-(((4-(pyrimidin-5-yl)benzyl)oxy)imino)ethyl)benzyl)pyrrolidine-3-carboxylic acid]	36.2 ± 6.58	–	–
CCc1cc(/C(C)=N/OCc2ccc(-c3cnsc3)cc2)ccc1CN1CC[C@H](C(=O)O)C1 [Compound 74]	13.13 ± 0.02	–	–
C[C@]12C=CC(=O)C=C1CC[C@@H]1[C@@H]2[C@@H](O)C[C@@]2(C)[C@H]1CC[C@]2(O)C(=O)CO [prednisolone, reference compound]	–	–	grip strength (ratio of grip strength to body weight) ([3]; after 21 days of treatment): significantly increased; collagen deposition (collagen area ratio) ([3]; after administration): significantly reduced collagen deposition; serum creatine kinase level ([3]; after treatment): no such lowering effect; also recorded: no reduction; body weight gain trend ([3]; compared with the model group): relatively slow; collagen deposition (collagen area ratio) [4, 5]: significantly reduced collagen deposition; number of centrally nucleated fibers (HE staining) [4, 5]: significantly reduced; serum creatine kinase level ([4]; 1 mg/kg intragastric once daily, after treatment): significantly reduced; body weight growth trend ([4]; 1 mg/kg intragastric once daily, compared with the model group): no difference; macrophage content (F4/80 immunofluorescence, muscle inflammation) ([4]; intragastric once daily): significantly reduced macrophage content
CCc1cc(/C(C)=N/OCc2ccc(-c3cnc(F)cn3)c(C)c2)ccc1CN1CCC(C(=O)O)CC1 [Compound 90, (E)-1-(2-ethyl-4-(1-(((3-methyl-4-(5-fluoropyrazin-2-yl)-benzyl)oxy)imino)ethyl)benzyl)piperidine-4-carboxylic acid]	–	5950 ± 72.8	–
CCc1cc(/C(C)=N/OCc2ccc(-c3ccns3)cc2)ccc1CN1CC[C@H](C(=O)O)C1 [Compound 75]	34.17 ± 0.22	–	–
